Measured values published in the NIST ThermoML archive (doi:10.1021/je101304x).
± gives the expanded uncertainty stated by the source.

Conditions: Liquid, Ebulliometric method (Recirculating still)

CO [methanol]
Conditions	vapor or sublimation pressure [kPa]
333.42 K	85.4 ± 1.2
334.56 K	89.5 ± 1.2
337.65 K	101.3 ± 1.2
342.17 K	120.9 ± 1.3
343.06 K	124.8 ± 1.5
346.64 K	142.6 ± 1.4
350.25 K	163.2 ± 1.5
353.17 K	181 ± 1.5
353.27 K	181.7 ± 1.7
356.35 K	202.7 ± 1.6
358.91 K	221.3 ± 1.7
361.45 K	241.4 ± 1.8
363.19 K	255.9 ± 2.1
363.85 K	261.6 ± 1.9
366.88 K	288.9 ± 2
370.13 K	321.3 ± 2.1
372.04 K	341.2 ± 2.3
372.9 K	350.9 ± 2.4
375.89 K	385.4 ± 2.3

C1CCCCC1 [cyclohexane]
Conditions	vapor or sublimation pressure [kPa]
403.15 K	362.8 ± 3.9

C=C(C)C(C)C [2,3-dimethyl-1-butene]
Conditions	vapor or sublimation pressure [kPa]
341.87 K	153.7 ± 1.3
343.06 K	158.1 ± 1.5
343.95 K	162.3 ± 1.3
345.83 K	171.3 ± 1.3
347.12 K	178.2 ± 1.4
348.71 K	186.4 ± 1.4
350.49 K	196.3 ± 1.4
352.78 K	208.6 ± 1.4
353.27 K	211.3 ± 1.7
354.06 K	216.3 ± 1.5
356.15 K	228.9 ± 1.5
358.73 K	244.9 ± 1.5
361.3 K	262.1 ± 1.6
362.89 K	273.7 ± 1.7
363.19 K	275.3 ± 1.9
364.38 K	284.9 ± 1.6
365.57 K	292.7 ± 1.7
366.96 K	303.8 ± 1.8
368.24 K	313.9 ± 1.7
369.04 K	319.7 ± 1.7
370.13 K	328.6 ± 1.8
371.12 K	336.4 ± 1.8
372.21 K	346.1 ± 1.9
372.9 K	351.5 ± 2.2
373.7 K	358.8 ± 1.9
374.59 K	366.7 ± 1.9
375.19 K	372.1 ± 1.9
375.78 K	377.4 ± 1.9
376.87 K	386.8 ± 1.9
377.37 K	391.7 ± 2

c1ccccc1 [benzene]
Conditions	vapor or sublimation pressure [kPa]
403.15 K	379.3 ± 4.1
